From article PMC6739813, “Structures of the Neisseria meningitides methionine‐binding protein MetQ in substrate‐free form and bound to L‐ and D‐methionine isomers” (Protein Science : A Publication of the Protein Society, 2019)

Assays:
[1] = target: T1, MetQ (methionine-binding protein) (Neisseria meningitidis, UniProt Q9JPG4); test: ITC; crystal structure at […] Å
T1 construct: gene gna1946

[2] = target: T2, MetQ (methionine-binding protein) (Neisseria meningitidis, UniProt Q9JPG4, N238A); test: ITC
T2 construct: gene gna1946
T2 sequence (Q9JPG4 43-287 N238A): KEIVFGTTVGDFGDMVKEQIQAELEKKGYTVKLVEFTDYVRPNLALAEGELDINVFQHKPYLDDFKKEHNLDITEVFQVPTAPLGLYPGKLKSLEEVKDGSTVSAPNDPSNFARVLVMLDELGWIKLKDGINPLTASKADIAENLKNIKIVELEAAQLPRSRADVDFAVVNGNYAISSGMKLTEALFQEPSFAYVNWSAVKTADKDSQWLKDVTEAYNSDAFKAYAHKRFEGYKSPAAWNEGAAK

[3] = target: T1, MetQ (methionine-binding protein); test: ITC (displacement titration with D-methionine); crystal structure at […] Å

SMILES	Kd [1] [µM]	Kd [2] [µM]	Kd [3] [µM]
CSCC[C@@H](N)C(=O)O [D-methionine]	3.5	240	
CSCC[C@H](N)C(=O)O [L-methionine]		78	0.0002
